Test results published in patent publication US10745400B2, “Inhibition of BMP signaling, compounds, compositions and uses thereof” (Vanderbilt University, priority 2018, dated 2020).

Columns and labels:
[1] = Intrinsic clearance, mouse; format: in vitro ADME; settings: for CLint scaled: mouse
[2] = Intrinsic clearance, human; format: in vitro ADME; settings: for CLint scaled: human
ALK3/BMPR1A = ALK3/BMPR1A (Homo sapiens, UniProt P36894); assay: Kinase assay (33P-ATP filter-binding), ALK3; format: biochemical; settings: 1 mM; read-out: Kinase Selectivity ALK3/BMPR1A (1 mM)
Protocol: (§1) The kinase assays were carried out briefly as follows. Substrate was prepared in Base Reaction Buffer (20 mM Hepes (pH 7.5), 10 mM MgCl2, 1 mM EGTA, 0.02% Brij35, 0.02 mg/ml BSA, 0.1 mM Na3VO4, 2 mM DTT, 1% DMSO). The indicated kinases was delivered into the substrate solution and allowed to gently mix. Next, the specific compound was delivered in DMSO into the kinase mixture by Acoustic technology (Echo550; nanoliter range), and allowed to incubate for 20 minutes at room temperature. Next, ^33P-ATP was delivered into the reaction mixture to initiate the reaction and allowed to incubate at room temperature. After 2 hours, the reactions were spotted onto P81 ion exchange paper and the kinase activity is detected by the filter-binding method.

[3] = system: BMP-responsive C2C12 mouse myoblast cells stimulated with BMP4; assay: BMP4 cell assay (Id1 promoter-firefly luciferase reporter); format: cell-based; settings: BMP4 50 ng/mL, overnight
Protocol: The BMP4 cell assay were carried out briefly as follows. Stably transfected BMP-responsive C2C12 mouse myoblast cells (containing the Idl promoter-firefly luciferase reporter) were seeded in 96-well plates and incubated overnight with the compounds and BMP4 (50 ng/mL). The cells were then lysed, and cell extracts were then subjected to the firefly luciferase assay using Steady-Glo luciferase assay kit (Promega). The results were normalized to cell titers, as measured using Cell Titer-Glo luminescence assay (Promega). […] Relative activity was quantified by the ratio of firefly to Renilla luciferase activities using the dual luciferase assay kit (Promega).

ALK6 = ALK6 (Homo sapiens, UniProt O00238); assay: Kinase assay (33P-ATP filter-binding), ALK6; format: biochemical; settings: read-out: Kinase Selectivity ALK6
Protocol: as §1

PDGFRb = PDGFRb (Homo sapiens, UniProt P09619); assay: Kinase assay (33P-ATP filter-binding), PDGFRb; format: biochemical; settings: read-out: Kinase Selectivity PDGFRb
Protocol: as §1

KDR = KDR (Homo sapiens, UniProt P35968); assay: Kinase assay (33P-ATP filter-binding), KDR; format: biochemical; settings: read-out: Kinase Selectivity KDR
Protocol: as §1

ALK4 = target: T1, ALK4 (Homo sapiens, UniProt P36896); assay: Kinase assay (33P-ATP filter-binding), ALK4; format: biochemical; settings: read-out: Kinase Selectivity ALK4
T1 sequence (P36896 24-505): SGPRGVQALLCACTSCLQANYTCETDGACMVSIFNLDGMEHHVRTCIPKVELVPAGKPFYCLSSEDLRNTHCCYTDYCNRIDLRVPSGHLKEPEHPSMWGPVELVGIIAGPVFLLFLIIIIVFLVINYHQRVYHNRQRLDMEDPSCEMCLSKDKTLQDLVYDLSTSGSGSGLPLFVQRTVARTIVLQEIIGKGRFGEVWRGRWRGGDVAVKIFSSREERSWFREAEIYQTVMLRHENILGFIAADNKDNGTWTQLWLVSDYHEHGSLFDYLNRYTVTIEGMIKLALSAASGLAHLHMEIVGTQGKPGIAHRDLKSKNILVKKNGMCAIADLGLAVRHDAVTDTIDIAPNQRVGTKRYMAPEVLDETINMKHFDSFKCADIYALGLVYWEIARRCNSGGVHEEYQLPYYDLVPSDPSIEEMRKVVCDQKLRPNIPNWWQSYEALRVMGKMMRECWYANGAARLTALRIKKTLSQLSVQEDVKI
Protocol: as §1

ALK1/ACVRL1 = ALK1/ACVRL1 (Homo sapiens, UniProt P37023); assay: Kinase assay (33P-ATP filter-binding), ALK1; format: biochemical; settings: read-out: Kinase Selectivity ALK1/ACVRL1
Protocol: as §1

Protein binding, mouse = format: in vitro ADME
BMPR2 = target: T2, BMPR2 (Homo sapiens, UniProt Q13873); assay: Kinase assay (33P-ATP filter-binding), BMPR2; format: biochemical; settings: read-out: Kinase Selectivity BMPR2
T2 sequence (Q13873 27-1038): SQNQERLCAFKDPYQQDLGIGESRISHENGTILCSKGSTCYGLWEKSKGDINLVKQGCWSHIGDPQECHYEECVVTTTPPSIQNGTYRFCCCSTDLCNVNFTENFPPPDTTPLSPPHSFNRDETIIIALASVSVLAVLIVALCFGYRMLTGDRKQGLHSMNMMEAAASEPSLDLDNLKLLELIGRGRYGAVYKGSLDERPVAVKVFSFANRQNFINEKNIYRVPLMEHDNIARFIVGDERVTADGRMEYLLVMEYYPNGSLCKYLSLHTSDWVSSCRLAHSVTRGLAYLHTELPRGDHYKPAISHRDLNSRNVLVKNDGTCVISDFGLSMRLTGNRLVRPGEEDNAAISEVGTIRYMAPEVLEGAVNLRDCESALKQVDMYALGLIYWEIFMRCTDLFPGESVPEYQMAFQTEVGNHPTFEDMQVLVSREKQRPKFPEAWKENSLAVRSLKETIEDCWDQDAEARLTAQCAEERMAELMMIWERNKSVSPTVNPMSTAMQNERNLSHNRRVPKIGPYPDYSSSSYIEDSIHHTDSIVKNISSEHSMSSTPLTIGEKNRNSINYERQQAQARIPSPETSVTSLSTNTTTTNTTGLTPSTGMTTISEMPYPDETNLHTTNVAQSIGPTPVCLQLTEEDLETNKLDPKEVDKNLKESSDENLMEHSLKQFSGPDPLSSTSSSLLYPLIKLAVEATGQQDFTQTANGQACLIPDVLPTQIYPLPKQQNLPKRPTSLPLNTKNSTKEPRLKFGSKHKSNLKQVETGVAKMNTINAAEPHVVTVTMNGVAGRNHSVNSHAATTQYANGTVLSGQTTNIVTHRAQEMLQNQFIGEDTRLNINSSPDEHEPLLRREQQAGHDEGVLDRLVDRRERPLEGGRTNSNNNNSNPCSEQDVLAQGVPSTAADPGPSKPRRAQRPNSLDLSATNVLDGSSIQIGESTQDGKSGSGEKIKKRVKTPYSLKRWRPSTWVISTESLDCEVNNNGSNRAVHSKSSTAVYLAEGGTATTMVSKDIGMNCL
Protocol: as §1

Protein binding, human = format: in vitro ADME
ALK5 = target: T3, ALK5 (Homo sapiens, UniProt P36897); assay: Kinase assay (33P-ATP filter-binding), ALK5; format: biochemical; settings: read-out: Kinase Selectivity ALK5
T3 sequence (P36897 34-503): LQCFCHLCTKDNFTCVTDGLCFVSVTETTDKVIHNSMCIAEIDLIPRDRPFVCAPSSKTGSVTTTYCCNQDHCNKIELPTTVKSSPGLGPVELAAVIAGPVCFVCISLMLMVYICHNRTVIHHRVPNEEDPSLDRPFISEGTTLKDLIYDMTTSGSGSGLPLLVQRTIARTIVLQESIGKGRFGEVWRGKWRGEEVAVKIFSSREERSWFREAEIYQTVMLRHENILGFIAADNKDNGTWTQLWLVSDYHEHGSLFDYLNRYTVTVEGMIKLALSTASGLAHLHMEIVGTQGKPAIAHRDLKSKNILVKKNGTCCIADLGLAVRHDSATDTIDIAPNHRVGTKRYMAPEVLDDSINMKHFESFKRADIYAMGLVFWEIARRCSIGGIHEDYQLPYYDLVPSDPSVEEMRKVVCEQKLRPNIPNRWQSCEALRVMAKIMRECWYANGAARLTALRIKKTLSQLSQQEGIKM
Protocol: as §1

TGFbR2 = TGFbR2 (Homo sapiens, UniProt P37173); assay: Kinase assay (33P-ATP filter-binding), TGFbR2; format: biochemical; settings: read-out: Kinase Selectivity TGFbR2
Protocol: as §1

[4] = CL-Hep, value in parentheses, read-out: Intrinsic Clearance Human (CL-Hep)

Chain of PDGFRb (P09619 33-1106, species assumed): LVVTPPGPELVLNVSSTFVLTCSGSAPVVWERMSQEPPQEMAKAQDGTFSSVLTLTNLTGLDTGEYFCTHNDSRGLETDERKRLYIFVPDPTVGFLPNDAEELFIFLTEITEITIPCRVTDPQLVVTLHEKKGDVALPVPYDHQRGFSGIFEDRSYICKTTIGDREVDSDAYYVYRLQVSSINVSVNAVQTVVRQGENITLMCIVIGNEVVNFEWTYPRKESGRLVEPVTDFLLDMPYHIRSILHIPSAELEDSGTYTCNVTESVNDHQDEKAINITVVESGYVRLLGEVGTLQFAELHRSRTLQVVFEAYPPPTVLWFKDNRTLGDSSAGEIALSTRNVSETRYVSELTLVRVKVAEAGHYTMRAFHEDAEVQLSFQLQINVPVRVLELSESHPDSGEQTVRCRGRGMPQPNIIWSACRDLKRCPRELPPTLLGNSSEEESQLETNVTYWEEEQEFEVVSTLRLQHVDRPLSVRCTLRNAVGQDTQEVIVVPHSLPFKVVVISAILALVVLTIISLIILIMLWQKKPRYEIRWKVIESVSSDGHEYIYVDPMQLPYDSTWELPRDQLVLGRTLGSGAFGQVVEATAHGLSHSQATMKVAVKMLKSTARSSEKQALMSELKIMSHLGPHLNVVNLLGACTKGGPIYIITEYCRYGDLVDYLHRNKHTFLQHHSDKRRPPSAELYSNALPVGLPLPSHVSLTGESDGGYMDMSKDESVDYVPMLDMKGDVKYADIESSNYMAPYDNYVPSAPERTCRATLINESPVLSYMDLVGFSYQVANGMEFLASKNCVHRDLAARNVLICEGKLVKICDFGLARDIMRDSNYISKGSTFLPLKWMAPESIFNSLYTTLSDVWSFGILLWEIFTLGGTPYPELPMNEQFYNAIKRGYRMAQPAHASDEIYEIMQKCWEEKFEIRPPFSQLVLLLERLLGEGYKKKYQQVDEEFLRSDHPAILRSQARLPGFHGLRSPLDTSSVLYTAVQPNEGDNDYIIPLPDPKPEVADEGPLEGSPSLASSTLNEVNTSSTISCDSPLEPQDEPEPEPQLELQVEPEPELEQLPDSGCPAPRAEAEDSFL
Chain of TGFbR2 (P37173 23-567, species assumed): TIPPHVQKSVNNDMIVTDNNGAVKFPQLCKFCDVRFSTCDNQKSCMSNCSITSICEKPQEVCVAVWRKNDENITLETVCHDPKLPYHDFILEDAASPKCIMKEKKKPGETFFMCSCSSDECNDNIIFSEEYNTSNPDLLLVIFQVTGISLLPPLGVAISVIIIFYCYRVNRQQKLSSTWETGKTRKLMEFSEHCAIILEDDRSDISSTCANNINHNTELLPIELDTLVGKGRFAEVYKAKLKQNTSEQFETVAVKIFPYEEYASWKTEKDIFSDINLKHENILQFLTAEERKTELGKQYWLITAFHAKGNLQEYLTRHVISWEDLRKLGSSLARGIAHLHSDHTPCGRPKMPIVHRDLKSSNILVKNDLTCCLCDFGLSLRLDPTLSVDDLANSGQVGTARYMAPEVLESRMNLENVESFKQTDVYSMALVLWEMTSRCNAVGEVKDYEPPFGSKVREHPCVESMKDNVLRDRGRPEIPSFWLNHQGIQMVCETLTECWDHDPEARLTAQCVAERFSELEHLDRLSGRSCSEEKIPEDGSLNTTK
Chain of ALK1/ACVRL1 (P37023 22-503): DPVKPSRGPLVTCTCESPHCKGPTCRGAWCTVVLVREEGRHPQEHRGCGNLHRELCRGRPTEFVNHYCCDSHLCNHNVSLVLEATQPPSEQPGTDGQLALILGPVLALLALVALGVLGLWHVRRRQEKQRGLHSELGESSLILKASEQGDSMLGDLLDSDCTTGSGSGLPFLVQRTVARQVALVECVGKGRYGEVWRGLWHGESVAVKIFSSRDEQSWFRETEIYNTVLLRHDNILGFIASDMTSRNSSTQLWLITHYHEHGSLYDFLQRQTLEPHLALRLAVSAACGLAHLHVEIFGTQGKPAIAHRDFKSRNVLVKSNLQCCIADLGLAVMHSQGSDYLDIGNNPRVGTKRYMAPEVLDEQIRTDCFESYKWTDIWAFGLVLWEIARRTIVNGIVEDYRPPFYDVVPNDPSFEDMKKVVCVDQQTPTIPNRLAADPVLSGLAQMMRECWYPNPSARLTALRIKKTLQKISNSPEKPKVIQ
Chain of ALK3/BMPR1A (P36894 24-532): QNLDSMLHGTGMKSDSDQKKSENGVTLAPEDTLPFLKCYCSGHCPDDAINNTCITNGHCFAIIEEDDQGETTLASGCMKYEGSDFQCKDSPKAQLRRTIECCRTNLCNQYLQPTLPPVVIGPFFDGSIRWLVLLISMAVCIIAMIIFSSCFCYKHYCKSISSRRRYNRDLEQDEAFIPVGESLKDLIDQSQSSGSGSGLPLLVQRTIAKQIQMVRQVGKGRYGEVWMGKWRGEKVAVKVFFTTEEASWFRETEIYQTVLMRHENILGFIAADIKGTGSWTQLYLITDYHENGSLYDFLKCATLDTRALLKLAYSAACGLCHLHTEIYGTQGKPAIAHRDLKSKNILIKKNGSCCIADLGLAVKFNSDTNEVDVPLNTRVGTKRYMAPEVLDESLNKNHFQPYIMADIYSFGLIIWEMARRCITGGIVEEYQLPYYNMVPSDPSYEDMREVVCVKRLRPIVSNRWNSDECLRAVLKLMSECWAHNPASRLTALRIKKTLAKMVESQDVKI
Chain of KDR (P35968 20-1356, species assumed): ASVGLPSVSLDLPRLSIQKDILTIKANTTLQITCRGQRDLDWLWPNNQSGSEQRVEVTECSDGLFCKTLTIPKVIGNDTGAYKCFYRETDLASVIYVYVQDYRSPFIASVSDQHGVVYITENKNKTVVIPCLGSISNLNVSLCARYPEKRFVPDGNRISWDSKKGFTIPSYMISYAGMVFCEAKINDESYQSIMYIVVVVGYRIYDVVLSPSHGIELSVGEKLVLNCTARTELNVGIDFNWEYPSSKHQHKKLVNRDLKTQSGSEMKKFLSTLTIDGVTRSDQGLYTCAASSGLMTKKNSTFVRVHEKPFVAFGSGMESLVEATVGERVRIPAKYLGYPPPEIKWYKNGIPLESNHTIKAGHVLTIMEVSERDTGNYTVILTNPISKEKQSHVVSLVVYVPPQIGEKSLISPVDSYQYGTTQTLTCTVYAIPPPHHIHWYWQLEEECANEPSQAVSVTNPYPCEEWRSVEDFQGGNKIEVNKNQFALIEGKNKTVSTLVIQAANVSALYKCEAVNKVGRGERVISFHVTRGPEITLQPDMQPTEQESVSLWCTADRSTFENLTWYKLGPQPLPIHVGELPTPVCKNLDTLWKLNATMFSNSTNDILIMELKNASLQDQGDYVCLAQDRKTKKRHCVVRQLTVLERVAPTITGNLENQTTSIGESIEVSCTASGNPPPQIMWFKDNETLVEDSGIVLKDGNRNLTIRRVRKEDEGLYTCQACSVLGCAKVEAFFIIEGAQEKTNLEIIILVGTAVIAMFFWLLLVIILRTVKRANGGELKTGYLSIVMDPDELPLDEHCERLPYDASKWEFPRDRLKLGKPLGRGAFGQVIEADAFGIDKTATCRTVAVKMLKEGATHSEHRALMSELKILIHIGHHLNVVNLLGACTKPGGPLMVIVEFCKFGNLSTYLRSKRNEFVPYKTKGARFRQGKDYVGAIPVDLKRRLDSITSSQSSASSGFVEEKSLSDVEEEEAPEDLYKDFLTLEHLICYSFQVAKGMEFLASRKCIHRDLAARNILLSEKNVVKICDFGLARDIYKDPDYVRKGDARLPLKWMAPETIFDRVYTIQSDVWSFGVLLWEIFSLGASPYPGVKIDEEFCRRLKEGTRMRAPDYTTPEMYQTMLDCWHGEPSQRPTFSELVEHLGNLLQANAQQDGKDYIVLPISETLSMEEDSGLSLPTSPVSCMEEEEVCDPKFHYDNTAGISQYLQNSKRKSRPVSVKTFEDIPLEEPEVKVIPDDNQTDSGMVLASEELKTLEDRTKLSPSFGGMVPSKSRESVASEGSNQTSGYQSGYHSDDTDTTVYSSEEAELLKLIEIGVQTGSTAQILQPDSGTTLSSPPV
Chain of ALK6 (O00238 14-502): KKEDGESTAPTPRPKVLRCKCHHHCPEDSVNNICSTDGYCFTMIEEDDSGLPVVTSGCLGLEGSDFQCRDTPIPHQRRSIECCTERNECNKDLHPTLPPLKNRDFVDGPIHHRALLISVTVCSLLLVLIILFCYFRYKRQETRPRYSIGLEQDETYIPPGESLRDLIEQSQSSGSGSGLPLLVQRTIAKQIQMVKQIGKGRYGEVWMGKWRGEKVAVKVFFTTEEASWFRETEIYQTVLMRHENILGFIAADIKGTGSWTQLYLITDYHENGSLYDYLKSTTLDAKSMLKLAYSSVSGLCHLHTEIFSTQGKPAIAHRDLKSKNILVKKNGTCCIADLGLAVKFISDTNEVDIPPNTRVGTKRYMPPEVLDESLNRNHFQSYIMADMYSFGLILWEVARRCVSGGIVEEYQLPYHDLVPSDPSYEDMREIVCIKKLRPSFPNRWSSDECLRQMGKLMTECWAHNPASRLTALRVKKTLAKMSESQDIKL

**Q.** Which “Intrinsic Clearance Mouse” value [1] does the source give for `Cc1cc(-c2cnc3cc(-c4ccc(C5CNCCN5)cc4)ccn23)c2cc(F)ccc2n1` (centres unmarked) [Compound 18] here?
**A.** <49.5 mL/min/kg

**Q.** And the “Intrinsic Clearance Mouse (CL-Hep)” value ([1]; CL-Hep, value in parentheses)?
**A.** (<32.94) mL/kg/min

**Q.** And the “Intrinsic Clearance Human (CL-Hep)” value ([2]; CL-Hep, value in parentheses)?
**A.** (12.4) mL/kg/min

**Q.** And the IC50 (ALK3/BMPR1A)?
**A.** < 5.1 nM

**Q.** What about the IC50 ([3]; C2C12 cells) of the same compound?
**A.** 34.9 nM

**Q.** What about the IC50 (ALK6) of the same compound?
**A.** 231 nM

**Q.** And the IC50 (PDGFRb)?
**A.** 6490 nM

**Q.** What about the IC50 (KDR) of the same compound?
**A.** 31400 nM

**Q.** What about the IC50 (ALK4) of the same compound?
**A.** 386 nM

**Q.** And the IC50 (ALK1/ACVRL1)?
**A.** 16.4 nM

**Q.** And the “Protein Binding (% Free) Mouse” value (Protein binding, mouse)?
**A.** 5.48 % Free

**Q.** What about the IC50 (BMPR2) of the same compound?
**A.** > 100000 nM

**Q.** What about the “Protein Binding (% Free) Human” value (Protein binding, human) of the same compound?
**A.** 7.33 % Free

**Q.** What about the IC50 (ALK5) of the same compound?
**A.** 456 nM

**Q.** What about the IC50 (TGFbR2) of the same compound?
**A.** 2680 nM

**Q.** For `Cc1cc(-c2cnc3cc(-c4ccc(C5COCCN5)cc4)ccn23)c2cc(F)cc(F)c2n1` (centres unmarked) [Compound 22], which CLint scaled [2, 4] is on record?
**A.** 17.5 mL/min/kg

**Q.** What about the IC50 (ALK3/BMPR1A) of the same compound?
**A.** < 5.1 nM

**Q.** And the IC50 (ALK6)?
**A.** 128 nM

**Q.** What about the IC50 (PDGFRb) of the same compound?
**A.** 5200 nM

**Q.** And the IC50 (KDR)?
**A.** 39300 nM

**Q.** And the IC50 (ALK4)?
**A.** 113 nM

**Q.** What about the IC50 (ALK1/ACVRL1) of the same compound?
**A.** 72.1 nM

**Q.** And the IC50 (BMPR2)?
**A.** > 50000 nM

**Q.** And the IC50 (ALK5)?
**A.** 232 nM

**Q.** And the IC50 (TGFbR2)?
**A.** 388 nM

**Q.** For `Cc1cc(-c2cnc3cc(-c4ccc(C5CNCCN5)cc4)ccn23)c2cc(F)ccc2n1` (centres unmarked) [Compound 17], which CLint scaled ([1]; CL-Hep, value in parentheses, read-out: Intrinsic Clearance Mouse (CL-Hep)) is on record?
**A.** < 32.9 mL/min/kg

**Q.** What about the CLint scaled ([1]; read-out: Intrinsic Clearance Mouse) of the same compound?
**A.** < 49.5 mL/min/kg

**Q.** And the CLint scaled [2, 4]?
**A.** 14 mL/min/kg

**Q.** And the CLint scaled ([2]; read-out: Intrinsic Clearance Human)?
**A.** 46.7 mL/min/kg

**Q.** What about the IC50 (ALK3/BMPR1A) of the same compound?
**A.** < 5.1 nM

**Q.** What about the IC50 ([3]; Mus musculus, C2C12, C2C12 cells) of the same compound?
**A.** 29.6 nM

**Q.** And the IC50 (ALK6)?
**A.** 188 nM

**Q.** And the IC50 (PDGFRb)?
**A.** 6930 nM

**Q.** What about the IC50 (KDR) of the same compound?
**A.** 36900 nM

**Q.** And the IC50 (ALK4)?
**A.** 390 nM

**Q.** What about the IC50 (ALK1/ACVRL1) of the same compound?
**A.** 89.2 nM

**Q.** What about the “Protein Binding (% Free) Mouse” value (Protein binding, mouse) of the same compound?
**A.** 8.52 % Free

**Q.** And the IC50 (BMPR2)?
**A.** > 100000 nM

**Q.** What about the “Protein Binding (% Free) Human” value (Protein binding, human) of the same compound?
**A.** 10.3 % Free

**Q.** And the IC50 (ALK5)?
**A.** 717 nM

**Q.** And the IC50 (TGFbR2)?
**A.** 498 nM
